System: metastatic renal cell carcinoma (mRCC)
Test: Study A4061032 (AXIS phase 3 trial): PFS and OS of axitinib-treated mRCC patients by tumor CD68 IHC stratum (median cut off)
Assay type: in vivo, human
Conditions: for median OS / median progression free survival (PFS): regardless of prior treatment
Description: Study A4061032 (ClinicalTrials.gov Identifier: NCT00678392) was a phase 3 registrational trial entitled “Axitinib (AG-013736) as second line therapy for metastatic renal cell cancer: Axis trial”. […] A total of 650 patients were planned to be enrolled, and 723 subjects were eventually enrolled in the study.
As described in further detail in the Examples, formalin-fixed paraffin embedded (FFPE) tumor samples were collected from patients who participated in A4061032, and who provided specific consent for collection of tumor sample. Tumor myeloid (cluster of differentiation 68 “CD68”) or lymphocyte (cluster of differentiation 3 “CD3”) infiltration was assessed by immunohistochemistry (IHC) in tumor samples from 52 axitinib-treated patients. The aim was to investigate the potential association of these biomarkers with efficacy, consistent with the hypothesis that myeloid infiltration confers resistance to anti-angiogenic agents targeting the VEGF-VEGFR2 pathway (see Shojaei et al. (2007) Nat. Biotechnol. 25(8):911-920; and Lin et al. (2010) Eur. J. Cancer Suppl. 8(7): 191).
The evaluation of CD3 and CD68 was performed by image analysis from a whole slide scan. The region of interest was circled, and an image analysis algorithm was run. The percentage of positive cells (number of positive cells/total number of cells) and the density of positive cells (e.g. number of positive cells/mm^2) was measured. Some patients donated FFPE blocks, and some donated slides cut from blocks. Samples from all patients were analyzed, whether they were provided as slides or blocks.
This study was a 2-arm, randomized, open-label, multi-center phase 3 study of axitinib versus sorafenib in patients with metastatic renal cell carcinoma (mRCC), after failure following one prior systematic first-line regimen containing one or more of the following agents: sunitinib, bevacizumab+IFN α, temsirolimus, or cytokine(s). Overall, 723 patients with mRCC were randomized and enrolled in this study, among which 52 axitinib-treated patients were evaluable for immunohistochemistry (IHC) analysis; further, 33 of the 52 patients were previously treated with Sutent®.
All 52 patients were evaluable for both CD3 and CD68. Of the 52 CD3 and CD68 evaluable patients, 26 donated formalin-fixed paraffin embedded (FFPE) tumor blocks, and 26 donated slides for analysis. Mosaic Laboratories provided FFPE material representing human normal and human cancer. Specimens were procured under an IRB-reviewed protocol (MOS001) that allows for use of remnant, de-identified, or anonymized human samples for in vitro analysis under the guidelines defining ‘Exemption from Human Subject Research’ as defined by the Office of Human Research Protection. The CD68 mouse monoclonal KP1 antibody (Catalog# M0814, Lot#46406, Expiration date: September 2011) was purchased from Dako (Carpinteria, Calif., United States) and stored at 2-8° C. in accordance with accompanying documentation. The mouse IgG isotype control antibody (Lot#37211, Expiration date: July 2010) was purchased from Dako and stored at 2-8° C. in accordance with accompanying documentation. IHC was performed in accordance with Mosaic Laboratories' SOPs. The CD68 IHC assay was designed and validated to be compatible with CLIA guidelines for “homebrew” class I test validation.
For IHC biomarker analysis, the Biomarker Analysis Set was used, which included all patients who received at least one dose of study treatment. The following efficacy endpoints were analyzed: PFS, OS, and objective response rate (ORR). Summary statistics were provided for percent and density of positive cells by response category (complete response [CR]+partial response [PR] versus stable disease [SD]+progressive disease [PD]) for each marker). The Wilcoxon Rank Sum test was performed to test for difference between response categories. Fisher's exact test was used to test for association between response category and biomarker stratum using median value as cut off point.

[1] = patients with <median CD68 cell density (cut off 0.08 cells/mm^2)
[2] = patients with <median CD68 percentage of positive cells (cut off 5.21%)
[3] = patients with >=median CD68 cell density (cut off 0.08 cells/mm^2)
[4] = patients with >=median CD68 percentage of positive cells (cut off 5.21%)

SMILES: CNC(=O)c1ccccc1Sc1ccc2c(/C=C/c3ccccn3)n[nH]c2c1 [axitinib, 6-[2-(methylcarbamoyl)phenylsulfanyl]-3-E-[2-(pyridin-2-yl)ethenyl]indazole]
- hazard ratio (HR) for OS (>=median vs <median CD68 values, all cases, not statistically significant): > 0.6
- hazard ratio [HR] for PFS (>=median vs <median CD68 values, logrank p-value<=0.01, all patients regardless of prior treatment): 0.42
- median OS [1]: 17.8 months
- median progression free survival (PFS) [1]: 3.8 months
- median OS [2]: 21.8 months
- median progression free survival (PFS) [2]: 3.7 months
- median OS [3]: 22.6 months
- median progression free survival (PFS) [3]: 12.0 months
- median OS [4]: 20.0 months
- median progression free survival (PFS) [4]: 12.0 months
